Results reported in patent US20260234159A1, “SMALL MOLECULE TREATMENT OF FATTY LIVER DISEASE AND HCC” (SCANDIEDGE THERAPEUTICS AB, priority 2023, published 2026).
Like-named read-outs stand apart in the source and are kept apart here.

Tests used:
[1] = In vivo toxicological study in rats: plasma chemistry; parameters: species or system rats of the Wistar strain; details: plasma, 30-300 mg/kg of SET171
Procedure: Forty-two male and forty-two female rats of the Wistar strain were allocated to the study. Three groups of three males and three females were given doses of 30, 100 and 300 mg/kg of target compounds (Table 8). The vehicle was 1.5 w/w % HPMC, 1.5 w/w % PS80 in 10 mM PBS, pH 7 and dose volume were 5 mL/kg. The animals were acclimatised at least 14 day prior to the study and exposed to a 12 hours light, 12 hours dark light cycle. The formulations were administered via oral gavage. Administration occurred once daily in the morning for seven consecutive days. Blood for scheduled haematology and plasma chemistry were taken at necropsy. For plasma chemistry, 0.6 ml blood (lithium heparin) per animal and for haematology, 0.5 ml blood (K2EDTA) per animal. The blood and plasma were analysed using Exigo analyzer and Vetscan equipment. Blood samples were kept in room temperature […] after collection and mixing. The blood samples were analysed as whole blood within 60 min of collection. The VetScan analyser was calibrated with calibration samples of known plasma levels of each parameter before start of analysis, occasionally during the analysis period of study samples and after completed analyses (Table 10).

HepG2 cells = assay: Triglyceride (TAG) measurement assay, one week steatosis model; type: cell-based, human; details: Homo sapiens
Procedure, shortened: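 HepG2 cells steatosis-induced for one week in high-glucose DMEM/10% FBS with 10 μg/ml insulin and 10 μM T0901317, media changed at days 0, 3 and 5, with 10 μM test compound throughout. Triglyceride measured colorimetrically (OD 570 nm); viability by MTT.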

SMILES: N#Cc1c(NC(=O)c2cccc3ccccc23)sc2c1CCN(CC(=O)Nc1cccc(Br)c1)C2 [PKL-B171]
- ALB ([1]; Sex/Group F/11): 61 g/L
- ALP ([1]; Sex/Group F/11): 114 U/L
- ALT ([1]; Sex/Group F/11): 21 U/L
- AMY ([1]; Sex/Group F/11): 527 U/L
- BUN ([1]; Sex/Group F/11): 6.0 mmol/L
- CA ([1]; Sex/Group F/11): 2.90 mmol/L
- CRE ([1]; Sex/Group F/11): 45 µmol/L
- GLOB ([1]; Sex/Group F/11): 8 g/L
- GLU ([1]; Sex/Group F/11): 7.8 mmol/L
- K+ ([1]; Sex/Group F/11): 4.4 mmol/L
- NA+ ([1]; Sex/Group F/11): 138 mmol/L
- PHOS ([1]; Sex/Group F/11): 2.33 mmol/L
- TBIL ([1]; Sex/Group F/11): 5.3 µmol/L
- TP ([1]; Sex/Group F/11): 70 g/L
- ALB ([1]; Sex/Group F/12): 57 g/L
- ALP ([1]; Sex/Group F/12): 126 U/L
- ALT ([1]; Sex/Group F/12): 21 U/L
- AMY ([1]; Sex/Group F/12): 570 U/L
- BUN ([1]; Sex/Group F/12): 6.5 mmol/L
- CA ([1]; Sex/Group F/12): 2.92 mmol/L
- CRE ([1]; Sex/Group F/12): 38 µmol/L
- GLOB ([1]; Sex/Group F/12): 9 g/L
- GLU ([1]; Sex/Group F/12): 7.7 mmol/L
- K+ ([1]; Sex/Group F/12): 4.5 mmol/L
- NA+ ([1]; Sex/Group F/12): 137 mmol/L
- PHOS ([1]; Sex/Group F/12): 2.42 mmol/L
- TBIL ([1]; Sex/Group F/12): 5.0 µmol/L
- TP ([1]; Sex/Group F/12): 66 g/L
- ALB ([1]; Sex/Group F/13): 56 g/L
- ALP ([1]; Sex/Group F/13): 145 U/L
- ALT ([1]; Sex/Group F/13): 21 U/L
- AMY ([1]; Sex/Group F/13): 550 U/L
- BUN ([1]; Sex/Group F/13): 6.3 mmol/L
- CA ([1]; Sex/Group F/13): 2.89 mmol/L
- CRE ([1]; Sex/Group F/13): 39 µmol/L
- GLOB ([1]; Sex/Group F/13): 11 g/L
- GLU ([1]; Sex/Group F/13): 7.9 mmol/L
- K+ ([1]; Sex/Group F/13): 4.5 mmol/L
- NA+ ([1]; Sex/Group F/13): 139 mmol/L
- PHOS ([1]; Sex/Group F/13): 2.64 mmol/L
- TBIL ([1]; Sex/Group F/13): 4.0 µmol/L
- TP ([1]; Sex/Group F/13): 67 g/L
- ALB ([1]; Sex/Group M/11): 51 g/L
- ALP ([1]; Sex/Group M/11): 260 U/L
- ALT ([1]; Sex/Group M/11): 26 U/L
- AMY ([1]; Sex/Group M/11): 810 U/L
- BUN ([1]; Sex/Group M/11): 5.3 mmol/L
- CA ([1]; Sex/Group M/11): 2.97 mmol/L
- CRE ([1]; Sex/Group M/11): 47 µmol/L
- GLOB ([1]; Sex/Group M/11): 12 g/L
- GLU ([1]; Sex/Group M/11): 7.8 mmol/L
- K+ ([1]; Sex/Group M/11): 4.3 mmol/L
- NA+ ([1]; Sex/Group M/11): 140 mmol/L
- PHOS ([1]; Sex/Group M/11): 2.83 mmol/L
- TBIL ([1]; Sex/Group M/11): 4.3 µmol/L
- TP ([1]; Sex/Group M/11): 62 g/L
- ALB ([1]; Sex/Group M/12): 52 g/L
- ALP ([1]; Sex/Group M/12): 248 U/L
- ALT ([1]; Sex/Group M/12): 35 U/L
- AMY ([1]; Sex/Group M/12): 846 U/L
- BUN ([1]; Sex/Group M/12): 6.2 mmol/L
- CA ([1]; Sex/Group M/12): 3.04 mmol/L
- CRE ([1]; Sex/Group M/12): 35 µmol/L
- GLOB ([1]; Sex/Group M/12): 12 g/L
- GLU ([1]; Sex/Group M/12): 7.7 mmol/L
- K+ ([1]; Sex/Group M/12): 4.6 mmol/L
- NA+ ([1]; Sex/Group M/12): 140 mmol/L
- PHOS ([1]; Sex/Group M/12): 3.04 mmol/L
- TBIL ([1]; Sex/Group M/12): 4.3 µmol/L
- TP ([1]; Sex/Group M/12): 64 g/L
- ALB ([1]; Sex/Group M/13): 50 g/L
- ALP ([1]; Sex/Group M/13): 263 U/L
- ALT ([1]; Sex/Group M/13): 25 U/L
- AMY ([1]; Sex/Group M/13): 808 U/L
- BUN ([1]; Sex/Group M/13): 6.4 mmol/L
- CA ([1]; Sex/Group M/13): 2.96 mmol/L
- CRE ([1]; Sex/Group M/13): 29 µmol/L
- GLOB ([1]; Sex/Group M/13): 13 g/L
- GLU ([1]; Sex/Group M/13): 8.4 mmol/L
- K+ ([1]; Sex/Group M/13): 4.4 mmol/L
- NA+ ([1]; Sex/Group M/13): 141 mmol/L
- PHOS ([1]; Sex/Group M/13): 2.94 mmol/L
- TBIL ([1]; Sex/Group M/13): 5.0 µmol/L
- TP ([1]; Sex/Group M/13): 63 g/L
- activity at 10 µM (HepG2 cells; 168 h, HepG2, 10 μM, one week steatosis induce media, Control 100.00, read-out: TAG (%)): 21.1%
- activity at 10 µM (HepG2 cells; HepG2, 168 h, ratio between TAG content and cell viability, Control 100.0, read-out: TAG/cell viability): 95.7%
